The assay deals with T1, mouse TRPM3α2 (mTRPM3) ion channel (Mus musculus, UniProt J9SQF3).
T1 construct: expressed in transfected cells; host or cells: Flp-In HEK293
T1 sequence (J9SQF3 1-1709 isoform J9SQF3-12): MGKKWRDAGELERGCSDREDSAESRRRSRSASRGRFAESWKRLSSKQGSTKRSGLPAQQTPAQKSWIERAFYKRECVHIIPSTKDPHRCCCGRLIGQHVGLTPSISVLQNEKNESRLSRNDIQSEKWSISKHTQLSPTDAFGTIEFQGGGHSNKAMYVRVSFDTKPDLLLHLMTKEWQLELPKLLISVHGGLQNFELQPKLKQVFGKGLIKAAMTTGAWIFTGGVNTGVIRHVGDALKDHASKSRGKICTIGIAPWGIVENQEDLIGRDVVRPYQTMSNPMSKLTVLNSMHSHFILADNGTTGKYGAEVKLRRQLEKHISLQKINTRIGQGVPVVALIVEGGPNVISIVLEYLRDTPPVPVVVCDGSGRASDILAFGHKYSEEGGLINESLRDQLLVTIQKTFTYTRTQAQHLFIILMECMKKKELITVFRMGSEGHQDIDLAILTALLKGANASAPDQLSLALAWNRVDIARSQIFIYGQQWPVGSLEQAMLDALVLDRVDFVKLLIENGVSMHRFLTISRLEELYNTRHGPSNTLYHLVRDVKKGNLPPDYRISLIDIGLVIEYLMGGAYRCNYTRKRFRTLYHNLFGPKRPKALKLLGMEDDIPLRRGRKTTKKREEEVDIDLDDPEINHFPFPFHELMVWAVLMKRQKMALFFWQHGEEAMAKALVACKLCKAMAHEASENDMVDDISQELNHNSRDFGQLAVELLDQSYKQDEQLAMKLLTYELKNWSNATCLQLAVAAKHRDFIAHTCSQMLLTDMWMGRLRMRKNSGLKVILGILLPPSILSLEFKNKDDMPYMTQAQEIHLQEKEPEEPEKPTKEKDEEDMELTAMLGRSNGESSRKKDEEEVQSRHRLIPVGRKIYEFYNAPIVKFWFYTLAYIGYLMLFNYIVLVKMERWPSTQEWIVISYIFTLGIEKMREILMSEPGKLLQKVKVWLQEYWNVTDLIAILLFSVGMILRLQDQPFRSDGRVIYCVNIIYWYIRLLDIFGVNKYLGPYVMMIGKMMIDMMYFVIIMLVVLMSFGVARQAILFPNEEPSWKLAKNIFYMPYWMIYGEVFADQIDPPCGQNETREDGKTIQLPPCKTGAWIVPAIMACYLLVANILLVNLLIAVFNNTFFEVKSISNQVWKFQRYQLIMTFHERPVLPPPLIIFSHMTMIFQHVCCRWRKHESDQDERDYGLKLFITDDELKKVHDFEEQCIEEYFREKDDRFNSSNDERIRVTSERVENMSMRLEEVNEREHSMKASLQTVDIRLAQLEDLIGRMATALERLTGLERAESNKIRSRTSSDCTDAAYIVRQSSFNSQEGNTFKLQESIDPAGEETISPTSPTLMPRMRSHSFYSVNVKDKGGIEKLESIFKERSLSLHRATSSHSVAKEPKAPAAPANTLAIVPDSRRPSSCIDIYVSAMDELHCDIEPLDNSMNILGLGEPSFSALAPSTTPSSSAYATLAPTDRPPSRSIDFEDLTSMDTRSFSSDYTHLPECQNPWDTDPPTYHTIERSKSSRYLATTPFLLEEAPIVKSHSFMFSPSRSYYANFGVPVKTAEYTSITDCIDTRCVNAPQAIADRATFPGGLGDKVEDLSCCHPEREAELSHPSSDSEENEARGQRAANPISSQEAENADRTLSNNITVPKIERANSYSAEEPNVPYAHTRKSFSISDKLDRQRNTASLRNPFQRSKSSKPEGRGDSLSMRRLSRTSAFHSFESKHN
The experiment in a line: TRPM3 ion channel driven Ca2+ uptake (Fluo-4 AM assay), PS-stimulated overexpressing HEK293 cells. It is filed as cell-based. The note with it: flip-in HEK293 overexpressing TRPM3, stimulated with Pregnenolone sulfate (PS) 50 μM, activity ranges A, B, C. As for the experimental part:
In order to monitor the inhibition of the mouse TRPM3α2 (mTRPM3) ion channel by the compounds of the invention, a cellular system making use of an mTRPM3alpha2 or hTRPM3 overexpressing cell line (flip-in HEK293) was used. The TRPM3 channel was stimulated/opened with Pregnenolone sulfate (PS) (50 μM) which results in Ca^2+ influx.
For mTRPM3, the intracellular Ca^2+ was measured with a Calcium responsive dye, Fluor-4 AMV ester (Invitrogen). Cells were cultured until a confluence of 80-90%, washed with Versene (Invitrogen) and detached from the surface by a short incubation with 0.05% Trypsin (Invitrogen). The trypsination process was stopped by the addition of complete cell culture medium (DMEM, glutamax, 10% FCS, NEAA, Pen-Strep). Cells were collected and resuspended in Krebs buffer without Calcium at RT.
Prior the cell seeding (±2000 cells/well into a black, 384 well plate (Greiner)) the diluted compound was added in the assay plate, together with the PS dissolved in Krebs buffer containing Calcium. […] Directly after cell addition the plates were read on an Envision fluorescence reader (Perkin Elmer) by an Excitation of 485 nm and emission at 535 nm.
Channel inhibition was calculated compared to a non-PS stimulated control versus a condition stimulated with PS (50 μM) with vehicle. The ability of the compounds of the invention to inhibit this activity was determined as: Percentage inhibition=[1-((RFU determined for sample with test compound present−RFU determined for sample with positive control inhibitor) divided by (RFU determined in the presence of vehicle−RFU determined for sample with positive control inhibitor))]*100.
The activities of the Example compounds tested are depicted in the table below. The activity ranges A, B and C refer to IC50 values in the Fluo-4 AM assay as follows: “A”: IC50<1 μM; “B”: 1 μM≤IC50≤20 μM and “C”: IC50>20 μM
For `Cc1oc2cnc(OCc3ccccn3)cc2c1C(=O)NC1(C(N)=O)CCOCC1` [Cpd 024, N-(4-carbamoyloxan-4-yl)-2-methyl-5-[(pyridin-2-yl)methoxy]furo[2,3-c]pyridine-3-carboxamide], the IC50 fell in the range of 1 to 20 µM.
Next, `Cc1oc2cnc(OCc3ccccn3)cc2c1C(=O)NC1(CO)CCC1` [Cpd 029, N-[1-(hydroxymethyl)cyclobutyl]-2-methyl-5-[(pyridin-2-yl)methoxy]furo[2,3-c]pyridine-3-carboxamide]: 1 to 20 µM.
Next, `Cc1ncsc1COc1cc2c(C(=O)NC(CO)C(N)=O)c(C)oc2cn1` (single isomer, unassigned) [Cpd 013-En1, 3-hydroxy-2-({2-methyl-5-[(4-methyl-1,3-thiazol-5-yl)methoxy]furo[2,3-c]pyridin-3-yl}formamido)propanamide]: > 20 µM; `Cc1oc2cnc(OCc3ccccn3)cc2c1C(=O)NC(CO)C(N)=O` (single isomer, unassigned) [Cpd 014-En1, 3-hydroxy-2-({2-methyl-5-[(pyridin-2-yl)methoxy]furo[2,3-c]pyridin-3-yl}formamido)propanamide]: 1 to 20 µM.
To `Cc1oc2cnc(OCc3ccccc3F)cc2c1C(=O)NC1(CO)CC1` [Cpd 018, 5-[(2-fluorophenyl)methoxy]-N-[1-(hydroxymethyl)cyclopropyl]-2-methylfuro[2,3-c]pyridine-3-carboxamide] belongs 1 to 20 µM; to `Cc1ncsc1COc1cc2c(C(=O)NC3(CO)CCOCC3)c(C)oc2cn1` [Cpd 035, N-[4-(hydroxymethyl)oxan-4-yl]-2-methyl-5-[(4-methyl-1,3-thiazol-5-yl)methoxy]furo[2,3-c]pyridine-3-carboxamide], 1 to 20 µM.
The compound `Cc1ncsc1COc1cc2c(C(=O)NC(C)(C)C(N)=O)c(C)oc2cn1` [Cpd 011, 2-methyl-2-({2-methyl-5-[(4-methyl-1,3-thiazol-5-yl)methoxy]furo[2,3-c]pyridin-3-yl}formamido)propanamide] showed an IC50 of 1 to 20 µM.
Next, `Cc1oc2cnc(OCc3ccccn3)cc2c1C(=O)NC(C)(C)C(N)=O` [Cpd 012, 2-methyl-2-({2-methyl-5-[(pyridin-2-yl)methoxy]furo[2,3-c]pyridin-3-yl}formamido)propanamide]: 1 to 20 µM.
To `Cc1oc2cnc(OCc3ccccn3)cc2c1C(=O)NC(CO)C(N)=O` (single isomer, unassigned) [Cpd 014-En2, 3-hydroxy-2-({2-methyl-5-[(pyridin-2-yl)methoxy]furo[2,3-c]pyridin-3-yl}formamido)propanamide] belongs < 1 µM; to `Cc1oc2cnc(OCc3cccnc3C(F)(F)F)cc2c1C(=O)N[C@@H]1CCNCC1(F)F` [Cpd 025, N-[(4R)-3,3-difluoropiperidin-4-yl]-2-methyl-5-{[2-(trifluoromethyl)pyridin-3-yl]methoxy}furo[2,3-c]pyridine-3-carboxamide], < 1 µM.
Next, `Cc1oc2cnc(OCc3ccccc3)cc2c1C(=O)NC(C)C(N)=O` (centres unmarked) [Cpd 010-Enl, 2-{[5-(benzyloxy)-2-methylfuro[2,3-c]pyridin-3-yl]formamido}propanamide]: 1 to 20 µM; `Cc1ncsc1COc1cc2c(C(=O)N[C@H](C(N)=O)[C@@H](C)O)c(C)oc2cn1` [Cpd 004, (2S,3R)-3-hydroxy-2-({2-methyl-5-[(4-methyl-1,3-thiazol-5-yl)methoxy]furo[2,3-c]pyridin-3-yl}formamido)butanamide]: < 1 µM.
`Cc1oc2cnc(OCc3ccccn3)cc2c1C(=O)NC(C)C(N)=O` (single isomer, unassigned) [Cpd 006 _ En2, 2-({2-methyl-5-[(pyridin-2-yl)methoxy]furo[2,3-c]pyridin-3-yl}formamido)propanamide] registered a half-inhibitory concentration (IC50) of 1 to 20 µM.
To `Cc1oc2cnc(OCc3ccccc3)cc2c1C(=O)NC1CNCC1(F)F` (single isomer, unassigned) [Cpd 015-En2, 5-(benzyloxy)-N-(4,4-difluoropyrrolidin-3-yl)-2-methylfuro[2,3-c]pyridine-3-carboxamide] belongs < 1 µM; to `Cc1ncsc1COc1cc2c(C(=O)NC3CNCC3(F)F)c(C)oc2cn1` (single isomer, unassigned) [Cpd 021-En2, N-(4,4-difluoropyrrolidin-3-yl)-2-methyl-5-[(4-methyl-1,3-thiazol-5-yl)methoxy]furo[2,3-c]pyridine-3-carboxamide], > 20 µM; to `Cc1ncsc1COc1cc2c(C(=O)NC3(C(N)=O)COC3)c(C)oc2cn1` [Cpd 019, N-(3-carbamoyloxetan-3-yl)-2-methyl-5-[(4-methyl-1,3-thiazol-5-yl)methoxy]furo[2,3-c]pyridine-3-carboxamide], > 20 µM.
`Cc1oc2cnc(OCc3cccnc3C(F)(F)F)cc2c1C(=O)N[C@H]1CCNCC1(F)F` [Cpd 026, N-[(4S)-3,3-difluoropiperidin-4-yl]-2-methyl-5-{[2-(trifluoromethyl)pyridin-3-yl]methoxy}furo[2,3-c]pyridine-3-carboxamide] came in with an IC50 of 1 to 20 µM.
To `Cc1oc2cnc(OCc3ccccc3F)cc2c1C(=O)NC(CO)C(N)=O` (single isomer, unassigned) [Cpd 008-En1, 2-({5-[(2-fluorophenyl)methoxy]-2-methylfuro[2,3-c]pyridin-3-yl}formamido)-3-hydroxypropanamide] belongs 1 to 20 µM.
To `Cc1ncsc1COc1cc2c(C(=O)NC3(CO)COC3)c(C)oc2cn1` [Cpd 033, N-[3-(hydroxymethyl)oxetan-3-yl]-2-methyl-5-[(4-methyl-1,3-thiazol-5-yl)methoxy]furo[2,3-c]pyridine-3-carboxamide] belongs 1 to 20 µM; to `Cc1ncsc1COc1cc2c(C(=O)NC(C)C(N)=O)c(C)oc2cn1` (single isomer, unassigned) [Cpd 005-En2, 2-({2-methyl-5-[(4-methyl-1,3-thiazol-5-yl)methoxy]furo[2,3-c]pyridin-3-yl}formamido)propanamide], > 20 µM; to `Cc1ncsc1CCOc1cc2c(C(=O)NC3CNCC3(F)F)c(C)oc2cn1` (centres unmarked) [Cpd 023-En1, N-(4,4-difluoropyrrolidin-3-yl)-2-methyl-5-[2-(4-methyl-1,3-thiazol-5-yl)ethoxy]furo[2,3-c]pyridine-3-carboxamide], 1 to 20 µM.
To `Cc1oc2cnc(OCc3ccccc3F)cc2c1C(=O)NC(C)C(N)=O` (single isomer, unassigned) [Cpd 009-En2, 2-({5-[(2-fluorophenyl)methoxy]-2-methylfuro[2,3-c]pyridin-3-yl}formamido)propanamide] belongs 1 to 20 µM.
Turning to `Cc1ncc(COc2cc3c(C(=O)N[C@H](C(N)=O)[C@@H](C)O)c(C)oc3cn2)s1` [Cpd 003, (2S,3R)-3-hydroxy-2-({2-methyl-5-[(2-methyl-1,3-thiazol-5-yl)methoxy]furo[2,3-c]pyridin-3-yl}formamido)butanamide], the IC50 was 1 to 20 µM.
`Cc1oc2cnc(OCc3ccccc3F)cc2c1C(=O)NC1CCN(CCO)C1=O` (single isomer, unassigned) [Cpd 017-En2, 5-[(2-fluorophenyl)methoxy]-N-[1-(2-hydroxyethyl)-2-oxopyrrolidin-3-yl]-2-methylfuro[2,3-c]pyridine-3-carboxamide]: the IC50 is 1 to 20 µM.
To `Cc1oc2cnc(OCCc3ccccc3)cc2c1C(=O)NC1CNCC1(F)F` (centres unmarked) [Cpd 022-En1, N-(4,4-difluoropyrrolidin-3-yl)-2-methyl-5-(2-phenylethoxy)furo[2,3-c]pyridine-3-carboxamide] belongs 1 to 20 µM; to `Cc1oc2cnc(OCc3ccccn3)cc2c1C(=O)NC1CCN(CCO)C1=O` (centres unmarked) [Cpd 027, N-[1-(2-hydroxyethyl)-2-oxopyrrolidin-3-yl]-2-methyl-5-[(pyridin-2-yl)methoxy]furo[2,3-c]pyridine-3-carboxamide], 1 to 20 µM; to `Cc1oc2cnc(OCc3ccccc3F)cc2c1C(=O)NC(CO)C(N)=O` (single isomer, unassigned) [Cpd 008-En2, 2-({5-[(2-fluorophenyl)methoxy]-2-methylfuro[2,3-c]pyridin-3-yl}formamido)-3-hydroxypropanamide], < 1 µM.
To `Cc1ncsc1COc1cc2c(C(=O)NC3(CO)CC3)c(C)oc2cn1` [Cpd 030, N-[1-(hydroxymethyl)cyclopropyl]-2-methyl-5-[(4-methyl-1,3-thiazol-5-yl)methoxy]furo[2,3-c]pyridine-3-carboxamide] belongs > 20 µM; to `Cc1oc2cnc(OCc3ccccc3)cc2c1C(=O)NC1CNCC1(F)F` (single isomer, unassigned) [Cpd 015-En1, 5-(benzyloxy)-N-(4,4-difluoropyrrolidin-3-yl)-2-methylfuro[2,3-c]pyridine-3-carboxamide], > 20 µM.

(Values after patent US20250346605A1, “NEW DERIVATIVES FOR TREATING TRPM3 MEDIATED DISORDERS” (Katholieke Universiteit Leuven, priority 2022, published 2025).)
